Experimental data taken from patent US20080318954A1, “Compounds” (Cyclacel Limited, priority 2004, published 2008).
Entries after “also recorded” stand apart in the source; their conditions may differ.

Legend:
ROCK-II = assay: Protein kinase panel selectivity screen, ROCK-II; assay type: biochemical; conditions: 1 μM compound; [ATP] 20 μM
Protocol: (§1) The names of the 29 kinases comprising the selectivity screen, as well as the ATP concentrations used in each kinase case, are given in Table 5. The kinase assays were carried out as described previously.
(§2) Compound XIV at a concentration of 1 μM was screened in the 29-kinase panel (Dundee University) and the results are shown bellow in Table 6.

CDK2/cyclin A = target: T1, CDK2/cyclin A (Homo sapiens, UniProt P24941); assay: CDK/cyclin kinase assay, CDK2/cyclin A; assay type: biochemical
T1 construct: His6 (N); made in house; host or cells: Sf9 insect cells (baculovirus)
Protocol: (§3) CDK4/cyclin D1, CDK1/cyclin B, CDK2/cyclin E, CDK2/cyclin A, CDK9/cyclin T1 and CDK7/cyclin H, all with a His6 tag on the N-terminus, were expressed in Sf9 insect cells using an appropriate baculovirus construct. Sf9 culture (1.6×10^6 cells/mL) was infected (MOI of 3) for two days. The cells were harvested by low speed centrifugation and the protein was purified from the insect cell pellet by metal affinity chromatography. In short: the insect cell pellet was lysed in Buffer A (10 mM Tris-HCl pH 8.0, 150 mM NaCl, 0.02% NP-40, 5 mM β-mercaptoethanol, 20 mM NaF, 1 mM Na3VO4, and Sigma Protease Inhibitor Cocktail) by sonication. The soluble fraction was cleared by centrifugation and loaded onto Ni-NTA-Agarose (Qiagen). Non-bound protein was washed off with 300 mM NaCl, 5-15 mM imidazole in buffer A and the bound protein was eluted with buffer A supplemented with 250 mM imidazole. The purified proteins were extensively dialyzed against storage buffer (20 mM HEPES pH 7.4, 50 mM NaCl, 2 mM DTT, 1 mM EDTA, 1 mM EGTA, 0.02% NP-40, 10% v/v glycerol) and stored at −70° C.
(§4) Compounds were investigated for their CDK2/cyclin E, CDK2/cyclin A, CDK1/cyclin B, and CDK4/cyclin D1 inhibitory activity. His6-tagged recombinant human cyclin-dependent kinases CDK1/cyclin B1, CDK2/cyclin E, CDK2/cyclin A, and CDK4 were expressed in sf9 insect cells using a baculovirus expression system. Recombinant cyclin D1 was expressed in E. coli. Proteins were purified by metal chelate affinity chromatography to greater than 90% homogeneity. Kinase assays were performed in 96-well plates using recombinant CDK/cyclins. Assays were performed in assay buffer (25 mM β-glycerophosphate, 20 mM MOPS, 5 mM EGTA, 1 mM DTT, 1 mM […], pH 7.4), into which were added 2-4 μg of active enzyme with appropriate substrates (purified histone H1 for CDK1 and CDK2, recombinant GST-retinoblastoma protein (residues 773-928) for CDK4). The reaction was initiated by addition of Mg/ATP mix (15 mM MgCl2+100 μM ATP with 30-50 kBq per well of [γ-^32P]-ATP) and mixtures incubated for 10-45 min, as required, at 30° C. Reactions were stopped on ice, followed by filtration through p81 or GF/C filterplates (for CDK4) (Whatman Polyfiltronics, Kent, UK). After washing 3 times with 75 mM aq orthophosphoric acid, plates were dried, scintillant added and incorporated radioactivity measured in a scintillation counter (TopCount, Packard Instruments, Pangbourne, Berks, UK). Compounds for kinase assays were made up as 10 mM stocks in DMSO and diluted into 10% DMSO in assay buffer. Data was analysed using curve-fitting software (GraphPad Prism version 3.00 for Windows, GraphPad Software, San Diego Calif. USA) to determine IC50 values (concentration of test compound which inhibits kinase activity by 50%).

Lck = assay: Protein kinase panel selectivity screen, Lck; assay type: biochemical; conditions: 1 μM compound; [ATP] 50 μM
Protocol: as §1, §2

DYRK1a = target: T2, DYRK1a (Homo sapiens, UniProt Q13627); assay: Protein kinase panel selectivity screen, DYRK1a; assay type: biochemical; conditions: 1 μM compound; [ATP] 50 μM
T2 construct: Dundee University (screening panel)
Protocol: as §1, §2

[1] = system: β-catenin in HEK293 cells; assay: β-catenin accumulation and phosphorylation in HEK293 cells; assay type: cell-based, human; conditions: up to 5 μM
From the text: One of the possible toxicities related to GSK3 inhibition is the accumulation of β-catenin, which has been implicated in the development of colon cancer and melanoma. The effect of example compound XIV on the endogenous levels of β-catenin in HEK293 cells was studied at concentrations that are effective in activation of cellular glycogen synthase.

[2] = system: glycogen synthase activity in 3T3 mouse adipocytes; assay: Glycogen synthase (GS) assay in 3T3 mouse adipocytes; assay type: cell-based
Protocol: Mouse pre-adipocytes 3T3-F442A were seeded at 9×10^5 cells per 10 cm dish in DMEM 10% FCS, containing penicillin/streptomycin. When 90% confluent, the same medium was supplemented with 1 μg/mL insulin. After 3-5 days (when most cells were differentiated) insulin was removed and 4 days later the cells were ready to use.
Cells on 10 cm dishes (Human Embryonic Kidney (HEK) 293 cells, L6 rat myocytes, or 3T3 mouse adipocytes) were treated with different concentrations of GSK3-inhibitors or DMSO vehicle for 90 min. Incubation medium was removed and cells were washed with ice-cold phosphate-buffered saline (PBS) prior to lysis on ice in 50 mM HEPES, pH 7.5, 10 mM EDTA, 100 mM NaF, 5 mM DTT, protease inhibitor cocktail (Sigma). After a freeze/thaw cycle the samples are sonicated for 10 sec and centrifuged at 15,000 g for 10 min at 4° C. Lysate supernatants were snap-frozen on liquid nitrogen and stored at −80° C. Lysates were assayed for glycogen synthase activity in buffer (50 mM Tris-HCl, pH 7.8, 20 mM EDTA, 25 mM NaF, 5 mM DTT, 1% glycogen, 0.3 mM UDP-glucose and 0.06 μCi of [^14C]-UDP-glucose in the presence of 0.1 or 10 mM glucose-6-phosphate. The reaction was carried out for 30 min at 30° C. 70 μL of the reaction mixture (total volume 90 μL) were transferred to a GFC 96-well filter plate (bottom sealed with foil), containing 140 μL 96% ethanol. The GFC plate was incubated for 1 h on ice and than washed with 66% ethanol. To each well 100 μL scintillant liquid was added and the radioactivity of the samples was measured using a scintillation counter (Topcount, HP). Data are expressed as -fold increase in glycogen synthase activity ratios over those of control samples.

CDK2/cyclin E = target: T3, CDK2/cyclin E (Homo sapiens, UniProt P24941); assay: CDK/cyclin kinase assay, CDK2/cyclin E; assay type: biochemical
T3 construct: His6 (N); made in house; host or cells: Sf9 insect cells (baculovirus)
Protocol: as §3, §4

SAPK2b/p38b2 = target: T4, SAPK2b/p38b2 (Homo sapiens, UniProt Q15759); assay: Protein kinase panel selectivity screen, SAPK2b/p38b2; assay type: biochemical; conditions: 1 μM compound; [ATP] 20 μM
T4 construct: Dundee University (panel)
Protocol: as §1, §2

T4 sequence (Q15759 whole entry): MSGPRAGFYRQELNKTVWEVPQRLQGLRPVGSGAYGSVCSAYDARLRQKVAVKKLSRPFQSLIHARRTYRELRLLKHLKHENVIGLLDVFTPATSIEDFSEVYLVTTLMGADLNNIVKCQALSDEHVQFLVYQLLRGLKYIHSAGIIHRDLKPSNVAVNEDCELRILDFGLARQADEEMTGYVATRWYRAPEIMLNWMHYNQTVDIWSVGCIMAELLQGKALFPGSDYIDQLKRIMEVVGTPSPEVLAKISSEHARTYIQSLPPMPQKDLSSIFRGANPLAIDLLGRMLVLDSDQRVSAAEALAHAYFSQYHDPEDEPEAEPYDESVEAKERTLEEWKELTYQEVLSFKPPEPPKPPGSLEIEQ

`Clc1ccc(Nc2nccc(-c3nccs3)n2)cn1` [Compound XIV, (6-Chloro-pyridin-3-yl)-(4-thiazol-2-yl-pyrimidin-2-yl)-amine] was tested. Which “% Activity ROCK-II” value (ROCK-II) did it give?
The value was 87 ± 6%.

What about the Ki (CDK2/cyclin A) of the same compound?
The Ki was over 50 µM.

What about the “Fold selectivity for GSK3 over CDK2/cyclin A” value (CDK2/cyclin A; from Ki) of the same compound?
Its value is >3,125 fold.

What about the IC50 (CDK2/cyclin A; read-out: Kinase inhibition IC50 CDK2/A) of the same compound?
The IC50 was over 50 µM.

And the “% Activity Lck” value (Lck)?
The value was 66 ± 5%.

What about the activity at 1 µM (DYRK1a) of the same compound?
Its activity at 1 µM is 74 ± 8%.

What about the “Levels of cellular β-catenin” value [1] of the same compound?
Its value is “lack of β-catenin accumulation; also recorded: did not change significantly”.

What about the “Phosphorylation of β-catenin at the GSK3-specific sites S33,37/T41” value [1] of the same compound?
Its value is “did not inhibit the phosphorylation”.

And the “Activation of GS relative to that induced by 40 mM LiCl” value ([2]; 3T3 adipocytes, 5 μM)?
The value was “approximately 2 fold”.

And the EC50 ([2]; Mus musculus, Adipocyte, 3T3 adipocytes, from dose-response curves, read-out: EC50 activation of glycogen synthase)?
Its EC50 is 5 ± 2.3 µM.

And the fold induction at 0.2 µM ([2]; Mus musculus, NIH3T3, 3T3 cells, 0.2 μM)?
Its fold induction at 0.2 µM is 1.1.

What about the fold induction at 1 µM ([2]; Mus musculus, NIH3T3, 3T3 cells, 1 μM) of the same compound?
The fold induction at 1 µM was 2.5.

And the fold induction at 5 µM ([2]; Mus musculus, NIH3T3, 3T3 cells, 5 μM)?
The fold induction at 5 µM was 3.7.

And the fold induction at 10 µM ([2]; Mus musculus, NIH3T3, 3T3 cells, 10 μM)?
The fold induction at 10 µM was 4.8.

What about the “Activity of glycogen synthase (fractional velocity)” value ([2]; mouse adipocyte cells, ratio of activity at 0.1 and 10 mM glucose-6-phosphate) of the same compound?
The value was “increased the activity of glycogen synthase”.

What about the Ki (CDK2/cyclin E) of the same compound?
Its Ki is 5.5 µM.

What about the “Selectivity IC50 (CDK2/E)/IC50 (GSK3β)” value (CDK2/cyclin E) of the same compound?
Its value is 63.

And the “Fold selectivity for GSK3 over CDK2/cyclin E” value (CDK2/cyclin E; from Ki)?
The value was 345 fold.

And the IC50 (CDK2/cyclin E; read-out: Kinase inhibition IC50 CDK2/E)?
The IC50 was 11 µM.

And the activity at 1 µM (SAPK2b/p38b2)?
Its activity at 1 µM is 92 ± 4%.
